Source: paper PMC7613998, “Development of selective inhibitors of phosphatidylinositol 3-kinase C2α” (Nature Chemical Biology, 2022)

Legend:
Assay in all cases: biochemical
Parameters in all cases: SelectScreen Adapta purified lipid kinase panel, 1 uM compound, 10 uM ATP, per cent inhibition
Details in all cases: ATP=10; Technology=Adapta; 10 uM ATP
[1] = molecular target: PIK3CA/PIK3R1 (p110 alpha/p85 alpha) (Homo sapiens, UniProt P42336)
Procedure: (§1) As PI3KC2α is related to other PI3Ks and to PI3K-like protein kinases such as mTOR, the selectivity of PITCOINs was determined in a panel of biochemical assays. […] Finally, the high specificity of PITCOINs for PI3KC2α was verified by Kinobead profiling experiments. In this approach, the ability of PITCOINs to compete the affinity capture of cellular kinases on immobilized nonselective kinase inhibitors (Kinobeads) is analyzed by mass spectrometry (MS)[31]. […] Four nonkinase weak off-targets were globally found for the three inhibitors with only FECH[32] common to the three PITCOINs (Supplementary Dataset).  Extended Data Fig. 2 Lipid kinase inhibitor profile of PITCOIN1-3. (a–c) Selectivity profiling of PITCOIN1-3 (1 µM) with purified lipid kinases in the presence of 10 µM ATP. […] Data are presented as mean ± SD from two independent experiments. (d, e) IC50 measurements of PITCOIN1-3 against purified recombinant class I PI3K p110α/p85α (d) or purified class III PI3K VPS34 complex II (e). 10 µM ATP and 20 µM PIP3 (for p110α/p85α) or 200 µM PI (for VPS34 complex II) were used as substrates. […] Data are presented as mean ± SD from two independent experiments. Source data

PI4K2A (PI4K2 alpha) = PI4K2A (PI4K2 alpha) (Homo sapiens, UniProt Q9BTU6)
Procedure: as §1

[2] = molecular target: PIK3CA E542K/PIK3R1 (p110 alpha E542K/p85 alpha) (Homo sapiens, UniProt P42336, E542K)
Procedure: as §1

PIK3C2G (PI3K-C2 gamma) = molecular target: T1, PIK3C2G (PI3K-C2 gamma) (Homo sapiens, UniProt O75747)
T1 sequence (O75747 1-1486): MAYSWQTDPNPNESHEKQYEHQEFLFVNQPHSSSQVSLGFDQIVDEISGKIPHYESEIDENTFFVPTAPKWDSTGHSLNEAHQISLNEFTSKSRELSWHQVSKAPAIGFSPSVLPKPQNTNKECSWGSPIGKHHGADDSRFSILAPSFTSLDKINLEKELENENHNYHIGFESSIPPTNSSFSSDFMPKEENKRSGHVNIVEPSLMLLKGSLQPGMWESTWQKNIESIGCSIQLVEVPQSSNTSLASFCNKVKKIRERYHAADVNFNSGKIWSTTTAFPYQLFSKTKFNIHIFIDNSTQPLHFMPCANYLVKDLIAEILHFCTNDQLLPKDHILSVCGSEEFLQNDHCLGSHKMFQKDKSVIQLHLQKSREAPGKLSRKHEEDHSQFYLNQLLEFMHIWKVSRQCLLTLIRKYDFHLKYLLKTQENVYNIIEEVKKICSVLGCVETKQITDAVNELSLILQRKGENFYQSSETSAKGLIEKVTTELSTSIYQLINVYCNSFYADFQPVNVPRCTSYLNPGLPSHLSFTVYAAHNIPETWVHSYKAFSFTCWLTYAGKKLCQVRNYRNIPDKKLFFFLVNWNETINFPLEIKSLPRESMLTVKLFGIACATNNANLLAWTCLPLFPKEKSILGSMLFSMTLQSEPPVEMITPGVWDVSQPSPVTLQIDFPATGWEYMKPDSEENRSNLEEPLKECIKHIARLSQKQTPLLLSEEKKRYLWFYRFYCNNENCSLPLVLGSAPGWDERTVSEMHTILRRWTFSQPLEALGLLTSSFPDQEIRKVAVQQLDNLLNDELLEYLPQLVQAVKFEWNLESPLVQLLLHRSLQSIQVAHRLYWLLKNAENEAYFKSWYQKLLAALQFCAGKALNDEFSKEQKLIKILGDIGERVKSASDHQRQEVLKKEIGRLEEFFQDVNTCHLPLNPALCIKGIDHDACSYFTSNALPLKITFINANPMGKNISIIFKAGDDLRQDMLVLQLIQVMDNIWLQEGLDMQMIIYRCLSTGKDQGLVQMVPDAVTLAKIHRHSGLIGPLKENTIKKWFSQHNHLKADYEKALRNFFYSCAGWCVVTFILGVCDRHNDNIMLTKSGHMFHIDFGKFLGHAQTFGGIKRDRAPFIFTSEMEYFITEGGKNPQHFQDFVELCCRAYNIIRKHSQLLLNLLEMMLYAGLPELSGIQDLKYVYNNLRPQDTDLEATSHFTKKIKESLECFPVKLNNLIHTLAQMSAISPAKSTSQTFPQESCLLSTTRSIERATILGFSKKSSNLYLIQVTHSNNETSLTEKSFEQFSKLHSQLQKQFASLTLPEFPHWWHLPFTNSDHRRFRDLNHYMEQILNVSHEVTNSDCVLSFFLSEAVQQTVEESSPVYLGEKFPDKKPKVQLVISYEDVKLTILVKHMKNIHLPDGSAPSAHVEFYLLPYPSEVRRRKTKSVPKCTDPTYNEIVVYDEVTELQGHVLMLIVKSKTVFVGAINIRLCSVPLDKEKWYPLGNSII
Procedure: as §1

PIK3CG (p110 gamma) = PIK3CG (p110 gamma) (Homo sapiens, UniProt P48736)
Procedure: as §1

PIP4K2A = molecular target: T2, PIP4K2A (Homo sapiens, UniProt P48426)
T2 sequence (P48426 1-406): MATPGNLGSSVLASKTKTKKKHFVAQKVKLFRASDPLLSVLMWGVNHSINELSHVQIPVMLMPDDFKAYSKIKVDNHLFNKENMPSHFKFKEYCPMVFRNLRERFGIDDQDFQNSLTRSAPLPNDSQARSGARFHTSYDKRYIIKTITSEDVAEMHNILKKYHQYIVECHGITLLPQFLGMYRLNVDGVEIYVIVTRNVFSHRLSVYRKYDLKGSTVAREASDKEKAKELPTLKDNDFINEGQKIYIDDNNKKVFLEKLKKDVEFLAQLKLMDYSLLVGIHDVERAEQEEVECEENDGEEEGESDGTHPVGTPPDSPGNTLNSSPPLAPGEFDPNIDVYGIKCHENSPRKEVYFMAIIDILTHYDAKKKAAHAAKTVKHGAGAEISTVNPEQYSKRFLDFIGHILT
Procedure: as §1

Sequence of PIK3CA E542K/PIK3R1 (p110 alpha E542K/p85 alpha) (P42336 whole entry E542K): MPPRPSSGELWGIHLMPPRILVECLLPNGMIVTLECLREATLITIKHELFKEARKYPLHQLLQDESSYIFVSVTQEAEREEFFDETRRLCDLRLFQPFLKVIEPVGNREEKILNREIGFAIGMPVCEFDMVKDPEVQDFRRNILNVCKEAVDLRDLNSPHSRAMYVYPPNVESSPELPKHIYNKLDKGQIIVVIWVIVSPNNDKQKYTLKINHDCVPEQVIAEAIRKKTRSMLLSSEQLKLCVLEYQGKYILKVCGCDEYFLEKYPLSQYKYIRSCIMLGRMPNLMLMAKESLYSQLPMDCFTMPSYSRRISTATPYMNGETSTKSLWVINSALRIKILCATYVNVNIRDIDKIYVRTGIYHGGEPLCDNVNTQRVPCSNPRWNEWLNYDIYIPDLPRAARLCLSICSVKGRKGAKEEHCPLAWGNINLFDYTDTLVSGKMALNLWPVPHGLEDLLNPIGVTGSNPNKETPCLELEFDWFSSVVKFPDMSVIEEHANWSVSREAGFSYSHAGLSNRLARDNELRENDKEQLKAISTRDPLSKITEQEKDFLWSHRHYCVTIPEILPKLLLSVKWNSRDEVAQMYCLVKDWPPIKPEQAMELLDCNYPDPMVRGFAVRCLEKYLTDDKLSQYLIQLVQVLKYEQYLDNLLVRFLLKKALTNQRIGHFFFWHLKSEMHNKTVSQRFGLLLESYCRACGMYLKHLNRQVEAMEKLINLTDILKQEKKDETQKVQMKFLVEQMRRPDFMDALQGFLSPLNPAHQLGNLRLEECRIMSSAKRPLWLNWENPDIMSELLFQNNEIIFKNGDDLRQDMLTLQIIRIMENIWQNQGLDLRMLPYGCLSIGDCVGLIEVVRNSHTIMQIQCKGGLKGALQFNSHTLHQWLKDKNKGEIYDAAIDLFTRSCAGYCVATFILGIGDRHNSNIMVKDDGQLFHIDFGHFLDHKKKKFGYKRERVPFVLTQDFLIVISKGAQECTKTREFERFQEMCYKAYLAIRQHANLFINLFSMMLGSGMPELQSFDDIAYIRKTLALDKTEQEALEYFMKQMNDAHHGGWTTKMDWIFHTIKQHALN
Sequence of PIK3CA E542K/PIK3R1 (p110 alpha E542K/p85 alpha) (P27986 whole entry partner): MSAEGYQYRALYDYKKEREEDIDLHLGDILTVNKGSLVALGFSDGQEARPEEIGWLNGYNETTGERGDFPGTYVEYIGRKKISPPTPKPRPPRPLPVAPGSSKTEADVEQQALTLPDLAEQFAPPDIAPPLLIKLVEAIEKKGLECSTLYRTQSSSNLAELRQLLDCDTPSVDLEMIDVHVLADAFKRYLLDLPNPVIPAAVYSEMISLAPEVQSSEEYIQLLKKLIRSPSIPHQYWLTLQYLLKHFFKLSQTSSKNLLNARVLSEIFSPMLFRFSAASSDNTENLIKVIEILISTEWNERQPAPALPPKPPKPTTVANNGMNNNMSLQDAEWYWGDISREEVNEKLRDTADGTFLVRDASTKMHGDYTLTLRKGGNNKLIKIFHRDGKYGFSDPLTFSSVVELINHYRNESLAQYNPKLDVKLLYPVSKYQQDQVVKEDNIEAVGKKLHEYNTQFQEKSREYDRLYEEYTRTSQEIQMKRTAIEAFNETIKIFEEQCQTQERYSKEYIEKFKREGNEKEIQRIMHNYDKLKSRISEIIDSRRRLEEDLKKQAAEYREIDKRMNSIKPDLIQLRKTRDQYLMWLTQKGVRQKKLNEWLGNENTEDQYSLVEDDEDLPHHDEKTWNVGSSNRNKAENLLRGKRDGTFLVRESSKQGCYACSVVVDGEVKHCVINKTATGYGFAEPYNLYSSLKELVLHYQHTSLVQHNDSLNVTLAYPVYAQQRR
Sequence of PI4K2A (PI4K2 alpha) (Q9BTU6 whole entry): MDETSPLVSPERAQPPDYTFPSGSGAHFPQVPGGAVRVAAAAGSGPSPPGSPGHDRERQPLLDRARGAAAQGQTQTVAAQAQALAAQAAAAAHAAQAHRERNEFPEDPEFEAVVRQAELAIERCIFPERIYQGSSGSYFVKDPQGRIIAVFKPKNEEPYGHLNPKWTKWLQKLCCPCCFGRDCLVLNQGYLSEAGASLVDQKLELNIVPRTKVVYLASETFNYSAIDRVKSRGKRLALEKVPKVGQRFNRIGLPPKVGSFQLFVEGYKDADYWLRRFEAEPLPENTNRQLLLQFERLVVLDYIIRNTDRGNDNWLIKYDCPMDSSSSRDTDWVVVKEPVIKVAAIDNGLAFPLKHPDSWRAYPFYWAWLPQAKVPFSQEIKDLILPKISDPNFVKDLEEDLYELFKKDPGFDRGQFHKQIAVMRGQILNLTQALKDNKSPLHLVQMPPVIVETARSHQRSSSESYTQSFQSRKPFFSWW
Sequence of PIK3CA/PIK3R1 (p110 alpha/p85 alpha) (P42336 whole entry): as the sequence (P42336 whole entry E542K) above, with K542E counted along it
Sequence of PIK3CA/PIK3R1 (p110 alpha/p85 alpha) (P27986 whole entry partner): as the sequence (P27986 whole entry partner) above
Sequence of PIK3CG (p110 gamma) (P48736 whole entry): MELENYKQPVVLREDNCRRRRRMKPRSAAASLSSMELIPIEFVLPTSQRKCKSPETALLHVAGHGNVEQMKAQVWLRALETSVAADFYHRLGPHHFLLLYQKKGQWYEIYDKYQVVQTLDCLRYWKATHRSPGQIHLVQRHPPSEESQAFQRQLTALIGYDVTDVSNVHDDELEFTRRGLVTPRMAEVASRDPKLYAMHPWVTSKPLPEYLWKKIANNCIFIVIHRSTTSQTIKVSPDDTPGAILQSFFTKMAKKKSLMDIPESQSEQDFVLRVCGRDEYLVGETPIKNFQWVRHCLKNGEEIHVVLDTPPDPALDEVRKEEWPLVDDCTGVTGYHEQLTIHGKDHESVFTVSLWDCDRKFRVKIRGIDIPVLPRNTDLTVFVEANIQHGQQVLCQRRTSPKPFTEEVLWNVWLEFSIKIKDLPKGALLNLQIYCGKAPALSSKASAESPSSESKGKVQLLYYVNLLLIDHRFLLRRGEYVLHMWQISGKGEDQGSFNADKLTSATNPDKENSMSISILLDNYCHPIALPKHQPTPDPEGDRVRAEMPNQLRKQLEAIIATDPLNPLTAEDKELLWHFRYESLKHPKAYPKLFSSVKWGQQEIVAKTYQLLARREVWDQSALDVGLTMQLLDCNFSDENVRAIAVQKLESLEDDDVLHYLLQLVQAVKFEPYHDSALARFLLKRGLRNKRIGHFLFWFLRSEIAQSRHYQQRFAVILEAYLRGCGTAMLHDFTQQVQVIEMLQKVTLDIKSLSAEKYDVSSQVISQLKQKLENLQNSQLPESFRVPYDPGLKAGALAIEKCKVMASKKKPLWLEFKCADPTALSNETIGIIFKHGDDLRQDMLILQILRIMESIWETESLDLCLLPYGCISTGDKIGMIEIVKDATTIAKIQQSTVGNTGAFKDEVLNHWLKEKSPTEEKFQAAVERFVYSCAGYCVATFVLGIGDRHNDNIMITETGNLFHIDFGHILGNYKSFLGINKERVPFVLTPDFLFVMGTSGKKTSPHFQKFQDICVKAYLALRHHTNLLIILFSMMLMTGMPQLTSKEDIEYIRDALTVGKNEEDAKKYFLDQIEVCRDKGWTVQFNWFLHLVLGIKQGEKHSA

## O=C(CSc1nc2nccnc2c(=O)n1CCc1ccccc1)Nc1nc(-c2cccc(O)c2)cs1 [compound 2, PITCOIN2]
[1]
  inhibition at 1 µM: -1%
PI4K2A (PI4K2 alpha)
  inhibition at 1 µM: 4%
[2]
  inhibition at 1 µM: 9%
PIK3C2G (PI3K-C2 gamma)
  inhibition at 1 µM: 9%
PIK3CG (p110 gamma)
  inhibition at 1 µM: 16%
PIP4K2A
  inhibition at 1 µM: 2%

## CS(=O)(=O)Nc1cccc(-c2csc(NC(=O)CSc3nc4nccnc4c(=O)n3CCc3ccccc3)n2)c1 [compound 3, PITCOIN3]
[1]
  inhibition at 1 µM: 17%
PI4K2A (PI4K2 alpha)
  inhibition at 1 µM: 1%
[2]
  inhibition at 1 µM: 14%
PIK3C2G (PI3K-C2 gamma)
  inhibition at 1 µM: 6%
PIK3CG (p110 gamma)
  inhibition at 1 µM: 9%
PIP4K2A
  inhibition at 1 µM: -15%

## O=C(CSc1nc2nccnc2c(=O)n1CCc1ccccc1)Nc1nccs1 [compound 1, PITCOIN1]
[1]
  inhibition at 1 µM: 5%
PI4K2A (PI4K2 alpha)
  inhibition at 1 µM: 8%
[2]
  inhibition at 1 µM: 5%
PIK3C2G (PI3K-C2 gamma)
  inhibition at 1 µM: 30%
PIK3CG (p110 gamma)
  inhibition at 1 µM: 20%
PIP4K2A
  inhibition at 1 µM: 13%
